Measurements: patent publication US9144248B2, “Cinnamamides as savory flavorings” (SYMRISE AG, priority 2011, dated 2015)
Entries after “also recorded” stand apart in the source; their conditions may differ.

What was measured:
Type in all cases: in vivo, human
[1] = Profiling of cinnamides in American beef extract base together with monosodium glutamate (enhancing effect), trained panel, descriptors scored 0-9; conditions: for enhancement of the monosodium glutamate effect: sample (iv) versus sample (ii) base + 0.05% MSG, FIG. 3: 20 ppm + 0.0025% monosodium glutamate in beef extract base
Experimental: An American beef extract as the base, a corresponding sauce mixed with monosodium glutamate, a corresponding sauce mixed with the cinnamide and a corresponding base mixed with monosodium glutamate were in each case administered blind individually to 15-25 trained panelists for profiling. Using the descriptors previously decided upon by discussion (mouth-fill, salty, metallic, meaty, bitter, mouth-watering, barbecued-roasted, sweet, sour, lingering) the strength of these was assessed on a scale of 0 (imperceptible) through 9 (very strong). The individual results of the panelists were averaged. […]
Here again (i) a beef extract as the base is compared with (ii) such a base with the addition of 0.05% monosodium glutamate, (iii) such a base with the addition of 0.0025% monosodium glutamate and (iv) such a base with the addition of 0.0025% monosodium glutamate and 5 ppm rubescenamine (3). […]
The test subjects assessed the strength of the stated flavors by giving a score on a scale of 0 (imperceptible) through 9 (very strong corresponding taste). The mean values of the respective scorings are shown. […]

[2] = Profiling of cinnamides in a complex base (American beef extract) by 15-25 trained panelists, descriptors scored 0-9, compared with MSG; conditions: for umami taste character compared with monosodium glutamate: comparison base + 0.05 wt. % MSG
Experimental: An American beef extract as the base, a corresponding base mixed with monosodium glutamate and a corresponding base mixed with the cinnamide were in each case administered blind individually to 15-25 trained panelists for profiling. Using the descriptors previously decided upon by discussion (mouth-fill, salty, metallic, meaty, bitter, mouth-watering, barbecued-roasted, sweet, sour, lingering) the strength of these was assessed on a scale of 0 (imperceptible) through 9 (very strong). The individual results of the panelists were averaged.
In the spider chart attached as FIG. 1 the profile of an American beef extract as the base (i) is compared with such a base with the addition of 10 ppm (iii) or 50 ppm rubemamine ([…]) (iv) and with a sample (ii) of such a base with the addition of 0.05 wt. % MSG (monosodium glutamate).
In the spider chart attached as FIG. 2 the profile of an American beef extract as the base (i) is compared with such a base with the addition of 5 ppm (iii) or 10 ppm rubescenamine (compound (3)) (iv) and with a sample (ii) of such a base with the addition of 0.05 wt. % MSG (monosodium glutamate).
The taste of a 0.5% American beef extract as base (i) was compared in a tasting by a panel of trained test subjects with the taste of such a base with 10 ppm (iii) or 50 ppm (iv) rubemamine (1) added, and such a base with 0.05 wt. % MSG added (ii).
The test subjects assessed the strength of the stated flavors by giving a score on a scale of 0 (imperceptible) through 9 (very strong corresponding taste). The mean values of the respective scorings are shown.
The taste of a 0.5% American beef extract as base (i) was compared in a tasting by a panel of trained test subjects with the taste of such a base with 5 ppm (iii) or 10 ppm (iv) rubescenamine (3) added, and such a base with 0.05 wt. % MSG added (ii).

[3] = Simple profiling of cinnamides dissolved in water, tasting by a group of experts with open discussion
Experimental: The compounds were dissolved in water in the stated concentration and assessed by a group of experts by tasting with open discussion.

[4] = 5 ppm + 0.0025% monosodium glutamate in beef extract base, listed as rubescenamine (3)

Compound: N[C@@H](CCC(=O)O)C(=O)[O-].[Na+] [monosodium glutamate, reference compound]
- taste profile of sample (iii) versus base (i) without addition, FIG. 3 ([1]; 0.0025% monosodium glutamate alone in beef extract base): perceived as less strong than the sample (i) without the addition; also recorded: perceived only slightly less strongly than sample (i) without the addition

Compound: COc1ccc(/C=C/C(=O)NCCc2ccc3c(c2)OCO3)cc1OC [Compound (3), rubescenamine]
- enhancement of the monosodium glutamate effect: sample (iv) versus sample (iii) base + 0.0025% MSG, FIG. 4 ([1]; 5 ppm + 0.0025% monosodium glutamate in beef extract base): in respect of virtually all parameters was assessed as stronger than sample (iii)
- "salty" parameter: sample (iv) versus sample (ii) base + 0.05% MSG, FIG. 4 [1, 4]: assessed similarly to sample (ii)
- enhancement of the monosodium glutamate effect: sample (iv) versus sample (iii) base + 0.0025% MSG, FIG. 4 [1, 4]: assessed more strongly on virtually all parameters than sample (iii)
- umami taste character compared with monosodium glutamate ([2]; 5 mg/kg test concentration in American beef extract base): umami taste that is very similar to that of monosodium glutamate
- taste profile, strength of descriptors (scale 0-9), FIG. 2 curve iii ([2]; 5 ppm in American beef extract base): strong effect
- taste profile, strength of descriptors (scale 0-9), FIG. 2 curve iv, versus sample (ii) base + 0.05 wt. % MSG ([2]; 10 ppm in American beef extract base): for most descriptors is able to achieve a similarly strong assessment to sample (ii)
- Taste profile (concentration in mg/kg) ([3]; 10 mg/kg): Umami, otherwise neutral (10 mg/kg)

Compound: COc1ccc(/C=C/C(=O)NCCc2ccc(OC)c(OC)c2)cc1OC [Compound (1), rubemamine]
- enhancement of the monosodium glutamate effect: sample (iv) versus sample (ii) base + 0.05% MSG, FIG. 3 [1]: hardly distinguishable from one another other than a slightly lower sweetness
- enhancement of the monosodium glutamate effect: sample (iv) versus sample (ii) base + 0.05% MSG, FIG. 3 ([1]; listed as rubemamine (1)): virtually indistinguishable
- umami taste character compared with monosodium glutamate ([2]; 10 mg/kg test concentration in American beef extract base): umami taste that is very similar to that of monosodium glutamate
- Taste profile (concentration in mg/kg) ([3]; 10 mg/kg): Umami (10 mg/kg)

Compound: O=C(/C=C/c1ccccc1)NCCc1ccc2c(c1)OCO2 [Compound (9), zanthomamine]
- enhancement of the monosodium glutamate effect: sample (iv) versus sample (iii) base + 0.0025% MSG, FIG. 5 ([1]; 50 ppm + 0.0025% monosodium glutamate in beef extract base): assessed more strongly on virtually all parameters than sample (iii)
- Taste profile (concentration in mg/kg) ([3]; 50 mg/kg): Somewhat delayed onset of umami effect (50 mg/kg)
